“Also recorded” adds a separate entry of the source. Square brackets hold non-standard residues; d marks the D form. Peptide text beside a SMILES is read from it.
What was measured:
SiHa = assay: cell proliferation by MTS assay for 72 h, SiHa; format: cell-based, human; conditions: SiHa tumor cell line
From the text: (§1) PM 2011 (1) inhibits tumor cell lines independent of endothelin receptor A (ETA) inhibition: Others have disclosed PM 2011 (1) and its derivatives as potent endothelin receptor antagonists (WO 92/12991, EP 526,642, U.S. Pat. No. 5,248,807, U.S. Pat. No. 5,463,107 and U.S. Pat. No. 5,587,505). We have used human tumor cell lines to evaluate the effects of PM 2011 (1) on endothelin-1 (ET-1) dependent biologic functions. Some of these cell lines are well characterized for the expression and role of ET-1, ETA and ETB (16, 41). […] To validate three cell lines, we studied the effects of BQ123, BQ788, PM2010, PM2011 and PM2012 on cell proliferation by MTS assay for 72 h (16).

HL60 = assay: cell proliferation by MTS assay for 72 h, HL60; format: cell-based, human
From the text: as §1

K562 = assay: cell proliferation by MTS assay for 72 h, K562; format: cell-based, human; conditions: K562 tumor cell line
From the text: as §1

C33A = assay: cell proliferation by MTS assay for 72 h, C33A; format: cell-based, human
From the text: as §1

SK-Mel-28 = assay: cell proliferation by MTS assay for 72 h, SK-Mel-28; format: cell-based, human; conditions: for growth inhibition of SK-Mel 28 cell line (in words): SK-Mel 28, MTS assay
From the text: as §1

NF-κB = assay: TNF-α-dependent activation of NF-κB binding to κB site in nuclear extracts of HeLa cells, ELISA (Panomics); format: cell-based; conditions: HeLa cell nuclear extracts, FIG. 1
From the text: To further explore the additional molecular target(s) for PM2011, we postulated that these compounds could antagonize the activation of NF-κB. To test this hypothesis, we evaluated the effects of PM2010, PM2011 and PM2012 on TNF-α-dependent activation of NF-κB binding to κB site in nuclear extracts of HeLa cells by an ELISA (Panomics) as recommended.

[1] = Homo sapiens, 100 μM, read-out: % Inhibition at 100 μM (i)

| Molecule | inhibition at 100 µM (SiHa; [1]) [%] | IC50 (HL60; Homo sapiens, HL-60, HL60 tumor cell line) [nM] | inhibition at 100 µM (K562; [1]) [%] | IC50 (C33A; Homo sapiens, C-33-A, C33A tumor cell line, MTS assay, 72 h) [nM] | IC50 (SK-Mel-28; Homo sapiens, SK-Mel-28 tumor cell line, MTS assay) [nM] | growth inhibition of SK-Mel 28 cell line (in words) (SK-Mel-28) | % Inhibition at 100 μM (i) (SiHa; 100 μM) [% i] | IC50 (HL60; HL60 tumor cell line) [nM] | % Inhibition at 100 μM (i) (K562; 100 μM) [%] | % Inhibition at 100 μM (i) (C33A; C33A tumor cell line, 100 μM, MTS assay, 72 h) [% i] | % Inhibition at 100 μM (i) (SK-Mel-28; SK-Mel-28 tumor cell line, 100 μM, MTS assay) [% i] | IC50 (SiHa) [nM] | IC50 (K562) [nM] | IC50 (C33A; C33A tumor cell line, MTS assay, 72 h) [nM] | inhibition of C33A (in words) (C33A; HPV-negative cell line C33A, neither secretes ET-1 nor expresses ETA) | IC50 (SK-Mel-28; SK-Mel-28 tumor cell line, MTS assay) [nM] | NF-κB binding to κB site / inhibition of NF-κB activation (in words) (NF-κB) |
| --- | --- | --- | --- | --- | --- | --- | --- | --- | --- | --- | --- | --- | --- | --- | --- | --- | --- |
| CCCC[C@@H](NC(=O)[C@@H](Cc1cn(C(=O)OC)c2ccccc12)NC(=O)[C@H](CC(C)(C)C)NC(=O)N1[C@H](C)CCC[C@@H]1C)C(=O)O [BQ788] | 45 | 45000 | 0 | 61800 | 82000 | inhibited the growth |  |  |  |  |  |  |  |  |  |  |  |
| CC(C)C[C@@H]1NC(=O)[C@@H](C(C)C)NC(=O)[C@@H]2CCCN2C(=O)[C@@H](CC(=O)O)NC(=O)[C@@H](Cc2c[nH]c3ccccc23)NC1=O [BQ-123] (cyclo(L[dW][dD]P[dV])) |  |  |  |  |  | no growth inhibition | 0 | 46000 | 30 | 20 | 0 |  |  |  |  |  |  |
| Myriceric acid A [PM2011] |  |  |  |  |  |  |  | 2300 |  |  |  | 3000 | 1000 | 1300 | inhibition | 900 | dose-dependent inhibition; also recorded: dose-dependent decrease |

From patent US7795306B2, “Triterpene derivatives for the treatment of cancer and inflammatory disease by inhibition of NF-κB” (priority 2006, dated 2010)
